Counter-ions that a name gives are not always drawn. Like-named read-outs stand apart in the source and are kept apart here.
Columns and labels:
[1] = system: human ether‐a‐go‐go–related gene potassium channels; details: in vitro, at clinically relevant plasma concentrations; cited from earlier work
[2] = system: HR, PR, and QRS of healthy volunteers; assay: PK-PD analysis of other ECG parameters; format: in vivo, human
healthy volunteers [3] = assay: Safety assessment: treatment-emergent adverse events; format: in vivo, human
[4] = system: QT/QTc interval of healthy volunteers; assay: Concentration-QTc
healthy volunteers [5] = assay: ECG outlier analyses; format: in vivo, human
healthy volunteers [6] = assay: ECG morphological analyses; format: in vivo, human
[7] = mean ± SE, cited from earlier work
CYP3A4 = details: cited from earlier work
[8] = system: QTcF interval of healthy volunteers; assay: Time-matched analysis of placebo-adjusted change from baseline QTcF; format: in vivo, human
[9] = Plasma pharmacokinetics after single oral dose; format: in vivo; details: human; for AUC / Tmax: oral; for Cmax: po
[10] = 50 mg trazodone HCl with ritonavir (4 doses of 200 mg)
[11] = 50 mg trazodone HCl, control condition

O=c1n(CCCN2CCN(c3cccc(Cl)c3)CC2)nc2ccccn12 [Trazodone, Trazodone hydrochloride]
Inhibition of hERG potassium channels [1]: potent dose‐dependent inhibition
Slope of HR change from baseline vs trazodone plasma concentration ([2]; SE 0.8013): 2.199
Slope of PR change from baseline vs trazodone plasma concentration ([2]; in vivo): –3.6040
Slope of QRS change from baseline vs trazodone plasma concentration ([2]; in vivo): 0.0445
Predicted placebo-adjusted and baseline-corrected HR at mean Cmax ([2]; trazodone 20 mg): 1.45 bpm
Predicted placebo-adjusted and baseline-corrected HR at mean Cmax ([2]; trazodone 60 mg): 2.12 bpm
Predicted placebo-adjusted and baseline-corrected HR at mean Cmax ([2]; trazodone 140 mg): 2.76 bpm
Predicted placebo-adjusted and baseline-corrected PR at predicted Cmax ([2]; trazodone 140 mg): –7.4 ms
Predicted placebo-adjusted and baseline-corrected QRS at predicted Cmax ([2]; trazodone 140 mg): 0.115 ms
Dizziness, frequency of subjects (healthy volunteers [3]; trazodone 20 mg): 0%
Somnolence, frequency of subjects (healthy volunteers [3]; trazodone 20 mg): 44.4%
Dizziness, frequency of subjects (healthy volunteers [3]; trazodone 60 mg): 5.6%
Somnolence, frequency of subjects (healthy volunteers [3]; trazodone 60 mg): 50.0%
Headache, frequency of subjects (healthy volunteers [3]; trazodone 140 mg): 10%
Somnolence, frequency of subjects (healthy volunteers [3]; trazodone 140 mg): 85.0%
Vomiting, frequency of subjects (healthy volunteers [3]; trazodone 140 mg): 10%
Treatment-related ECG QT prolongation, frequency of subjects (healthy volunteers [3]; trazodone 140 mg, 1 subject): 5%
Treatment-related abdominal discomfort, frequency of subjects (healthy volunteers [3]; trazodone 140 mg, 1 subject): 5%
Treatment-related hypertension, frequency of subjects (healthy volunteers [3]; trazodone 140 mg, 1 subject): 5%
Treatment-related hypotension, frequency of subjects (healthy volunteers [3]; trazodone 140 mg, 1 subject): 5%
Treatment-related palpitations, frequency of subjects (healthy volunteers [3]; trazodone 140 mg, 1 subject): 5%
Predicted Mean Effect at Mean Cmax (placebo-corrected change from baseline QTcF, ΔΔQTcF) ([4]; trazodone 60 mg, mean Cmax 1269.0 ng/mL): 12.3 ms
Predicted Mean Effect at Mean Cmax (placebo-corrected change from baseline QTcF, ΔΔQTcF) ([4]; trazodone 140 mg, mean Cmax 2083.5 ng/mL): 19.8 ms
Heart rate: Bradycardic outliers (healthy volunteers [5]; trazodone 20 mg, n = 18): 0 n (%)
Heart rate: Tachycardic outliers (healthy volunteers [5]; trazodone 20 mg, n = 18): 0 n (%)
PR interval: Outliers (healthy volunteers [5]; trazodone 20 mg, n = 18): 1 (6) n (%)
QRS interval: Outliers (healthy volunteers [5]; trazodone 20 mg, n = 18): 0 n (%)
QTcF >30‐60 ms inc change from baseline (healthy volunteers [5]; trazodone 20 mg, n = 18): 0 n (%)
QTcF >60 ms inc change from baseline (healthy volunteers [5]; trazodone 20 mg, n = 18): 0 n (%)
QTcF New >480 ms (healthy volunteers [5]; trazodone 20 mg, n = 18): 0 n (%)
QTcF New >500 ms (healthy volunteers [5]; trazodone 20 mg, n = 18): 0 n (%)
Heart rate: Bradycardic outliers (healthy volunteers [5]; trazodone 60 mg, n = 18): 0 n (%)
Heart rate: Tachycardic outliers (healthy volunteers [5]; trazodone 60 mg, n = 18): 1 (6) n (%)
PR interval: Outliers (healthy volunteers [5]; trazodone 60 mg, n = 18): 0 n (%)
QRS interval: Outliers (healthy volunteers [5]; trazodone 60 mg, n = 18): 0 n (%)
QTcF >30‐60 ms inc change from baseline (healthy volunteers [5]; trazodone 60 mg, n = 18): 1 (6) n (%)
QTcF >60 ms inc change from baseline (healthy volunteers [5]; trazodone 60 mg, n = 18): 0 n (%)
QTcF New >480 ms (healthy volunteers [5]; trazodone 60 mg, n = 18): 0 n (%)
QTcF New >500 ms (healthy volunteers [5]; trazodone 60 mg, n = 18): 0 n (%)
Heart rate: Bradycardic outliers (healthy volunteers [5]; trazodone 140 mg, n = 20): 1 (5) n (%)
Heart rate: Tachycardic outliers (healthy volunteers [5]; trazodone 140 mg, n = 20): 2 (10) n (%)
PR interval: Outliers (healthy volunteers [5]; trazodone 140 mg, n = 20): 1 (5) n (%)
QRS interval: Outliers (healthy volunteers [5]; trazodone 140 mg, n = 20): 0 n (%)
QTcF >30‐60 ms inc change from baseline (healthy volunteers [5]; trazodone 140 mg, n = 20): 6 (30) n (%)
QTcF >60 ms inc change from baseline (healthy volunteers [5]; trazodone 140 mg, n = 20): 0 n (%)
QTcF New >480 ms (healthy volunteers [5]; trazodone 140 mg, n = 20): 2 (10) n (%)
QTcF New >500 ms (healthy volunteers [5]; trazodone 140 mg, n = 20): 0 n (%)
New ST‐segment depression changes (healthy volunteers [6]; trazodone 20 mg, n = 18): 0 n (%)
New ST‐segment elevation changes (healthy volunteers [6]; trazodone 20 mg, n = 18): 0 n (%)
New second‐degree heart block (healthy volunteers [6]; trazodone 20 mg, n = 18): 0 n (%)
New third‐degree heart block (healthy volunteers [6]; trazodone 20 mg, n = 18): 0 n (%)
New ST‐segment depression changes (healthy volunteers [6]; trazodone 60 mg, n = 18): 1 (6) n (%)
New ST‐segment elevation changes (healthy volunteers [6]; trazodone 60 mg, n = 18): 0 n (%)
New second‐degree heart block (healthy volunteers [6]; trazodone 60 mg, n = 18): 0 n (%)
New third‐degree heart block (healthy volunteers [6]; trazodone 60 mg, n = 18): 0 n (%)
New ST‐segment depression changes (healthy volunteers [6]; trazodone 140 mg, n = 20): 0 n (%)
New ST‐segment elevation changes (healthy volunteers [6]; trazodone 140 mg, n = 20): 0 n (%)
New second‐degree heart block (healthy volunteers [6]; trazodone 140 mg, n = 20): 0 n (%)
New third‐degree heart block (healthy volunteers [6]; trazodone 140 mg, n = 20): 0 n (%)
Elimination half-life [7, 10]: 14.9 ± 3.9 h
Peak plasma concentrations [7, 10]: 1125 ± 111 ng/mL
Elimination half-life [7, 11]: 6.7 ± 0.7 h
Peak plasma concentrations [7, 11]: 842 ± 64 ng/mL
Metabolic pathway (CYP3A4): primarily metabolized by CYP3A4
Placebo-adjusted change from baseline QTcF, estimate (90%CI) ([8]; trazodone 20 mg, N = 16, 5 min postdose): –3.3 (–7.8 to 1.1) ms
Placebo-adjusted change from baseline QTcF, estimate (90%CI) ([8]; trazodone 20 mg, N = 16, 10 min postdose): –1.2 (–6.2 to 3.8) ms
Placebo-adjusted change from baseline QTcF, estimate (90%CI) ([8]; trazodone 20 mg, N = 16, 20 min postdose): –0.2 (–5.4 to 5.0) ms
Placebo-adjusted change from baseline QTcF, estimate (90%CI) ([8]; trazodone 20 mg, N = 16, 0.5 h postdose): 2.1 (–0.3 to 4.6) ms
Placebo-adjusted change from baseline QTcF, estimate (90%CI) ([8]; trazodone 20 mg, N = 16, 1 h postdose): 6.6 (1.5–11.7) ms
Placebo-adjusted change from baseline QTcF, estimate (90%CI) ([8]; trazodone 20 mg, N = 16, 2 h postdose): 3.5 (0.5–6.5) ms
Placebo-adjusted change from baseline QTcF, estimate (90%CI) ([8]; trazodone 20 mg, N = 16, 3 h postdose): 1.7 (–2.7 to 6.1) ms
Placebo-adjusted change from baseline QTcF, estimate (90%CI) ([8]; trazodone 20 mg, N = 16, 4 h postdose): 3.2 (–2.3 to 8.6) ms
Placebo-adjusted change from baseline QTcF, estimate (90%CI) ([8]; trazodone 20 mg, N = 16, 6 h postdose): –0.2 (–4.8 to 4.3) ms
Placebo-adjusted change from baseline QTcF, estimate (90%CI) ([8]; trazodone 20 mg, N = 16, 8 h postdose): 1.2 (–2.3 to 4.6) ms
Placebo-adjusted change from baseline QTcF, estimate (90%CI) ([8]; trazodone 20 mg, N = 16, 12 h postdose): 0.6 (–4.7 to 5.8) ms
Placebo-adjusted change from baseline QTcF, estimate (90%CI) ([8]; trazodone 20 mg, N = 16, 16 h postdose): –3.3 (–6.9 to 0.3) ms
Placebo-adjusted change from baseline QTcF, estimate (90%CI) ([8]; trazodone 20 mg, N = 16, 24 h postdose): 1.8 (–3.5 to 7.1) ms
Placebo-adjusted change from baseline QTcF, estimate (90%CI) ([8]; trazodone 60 mg, N = 16, 5 min postdose): –2.3 (–6.7 to 2.1) ms
Placebo-adjusted change from baseline QTcF, estimate (90%CI) ([8]; trazodone 60 mg, N = 16, 10 min postdose): 0.3 (–4.1 to 4.6) ms
Placebo-adjusted change from baseline QTcF, estimate (90%CI) ([8]; trazodone 60 mg, N = 16, 20 min postdose): 4.8 (–0.4 to 10.0) ms
Placebo-adjusted change from baseline QTcF, estimate (90%CI) ([8]; trazodone 60 mg, N = 16, 0.5 h postdose): 11.9 (8.6–15.3) ms
Placebo-adjusted change from baseline QTcF, estimate (90%CI) ([8]; trazodone 60 mg, N = 16, 2 h postdose): 8.8 (4.2–13.4) ms
Placebo-adjusted change from baseline QTcF, estimate (90%CI) ([8]; trazodone 60 mg, N = 16, 3 h postdose): 6.1 (1.9–10.2) ms
Placebo-adjusted change from baseline QTcF, estimate (90%CI) ([8]; trazodone 60 mg, N = 16, 4 h postdose): 7.9 (4.3–11.5) ms
Placebo-adjusted change from baseline QTcF, estimate (90%CI) ([8]; trazodone 60 mg, N = 16, 6 h postdose): 2.2 (–1.8 to 6.2) ms
Placebo-adjusted change from baseline QTcF, estimate (90%CI) ([8]; trazodone 60 mg, N = 16, 8 h postdose): –0.4 (–3.4 to 2.7) ms
Placebo-adjusted change from baseline QTcF, estimate (90%CI) ([8]; trazodone 60 mg, N = 16, 12 h postdose): 6.4 (1.7–11.0) ms
Placebo-adjusted change from baseline QTcF, estimate (90%CI) ([8]; trazodone 60 mg, N = 16, 16 h postdose): –1.4 (–5.6 to 2.7) ms
Placebo-adjusted change from baseline QTcF, estimate (90%CI) ([8]; trazodone 60 mg, N = 16, 24 h postdose): 2.0 (–3.0 to 6.9) ms
Placebo-adjusted change from baseline QTcF, estimate (90%CI) ([8]; trazodone 60 mg, N = 16, […] postdose): 16.9 ms
Increase in the QTcF interval (time-matched analysis) ([8]; trazodone 60 mg, between 30 minutes and […] postdose): > 10 ms
Placebo-adjusted change from baseline QTcF, estimate (90%CI) ([8]; trazodone 140 mg, N = 18, 5 min postdose): 0.8 (–2.7 to 4.4) ms
Placebo-adjusted change from baseline QTcF, estimate (90%CI) ([8]; trazodone 140 mg, N = 18, 10 min postdose): 0.5 (–3.0 to 4.0) ms
Placebo-adjusted change from baseline QTcF, estimate (90%CI) ([8]; trazodone 140 mg, N = 18, 20 min postdose): 11.6 (7.8–15.5) ms
Placebo-adjusted change from baseline QTcF, estimate (90%CI) ([8]; trazodone 140 mg, N = 18, 0.5 h postdose): 20.2 (16.4–23.9) ms
Placebo-adjusted change from baseline QTcF, estimate (90%CI) ([8]; trazodone 140 mg, N = 18, 1 h postdose): 24.5 (20.3–28.7) ms
Placebo-adjusted change from baseline QTcF, estimate (90%CI) ([8]; trazodone 140 mg, N = 18, 2 h postdose): 17.1 (13.4–20.8) ms
Placebo-adjusted change from baseline QTcF, estimate (90%CI) ([8]; trazodone 140 mg, N = 18, 3 h postdose): 14.5 (7.6–21.5) ms
Placebo-adjusted change from baseline QTcF, estimate (90%CI) ([8]; trazodone 140 mg, N = 18, 4 h postdose): 12.8 (8.5–17.1) ms
Placebo-adjusted change from baseline QTcF, estimate (90%CI) ([8]; trazodone 140 mg, N = 18, 6 h postdose): 6.7 (2.3–11.2) ms
Placebo-adjusted change from baseline QTcF, estimate (90%CI) ([8]; trazodone 140 mg, N = 18, 8 h postdose): 5.8 (0.9–10.7) ms
Placebo-adjusted change from baseline QTcF, estimate (90%CI) ([8]; trazodone 140 mg, N = 18, 12 h postdose): 7.9 (4.3–11.6) ms
Placebo-adjusted change from baseline QTcF, estimate (90%CI) ([8]; trazodone 140 mg, N = 18, 16 h postdose): –0.7 (–5.2 to 3.8) ms
Placebo-adjusted change from baseline QTcF, estimate (90%CI) ([8]; trazodone 140 mg, N = 18, 24 h postdose): 1.7 (–1.4 to 4.8) ms
Increase in the QTcF interval (time-matched analysis) ([8]; trazodone 140 mg, between 15 minutes and 4 hours postdose): > 10 ms
AUC ([9]; 20 mg): 2150 ± 909 ng·h/mL
Tmax ([9]; 20 mg): 30 min
AUC ([9]; 60 mg): 6240 ± 2030 ng·h/mL
Tmax ([9]; 60 mg): 30 min
AUC ([9]; 140 mg): 12800 ± 4910 ng·h/mL
Tmax ([9]; 140 mg): 18 min
Cmax ([9]; 20 mg): 413 ± 79.1 ng/mL
Cmax ([9]; 60 mg): 1270 ± 598 ng/mL
Cmax ([9]; 140 mg): 2080 ± 600 ng/mL

— article PMC7586935 (Journal of Clinical Pharmacology, 2020)
